Laboratory results from patent publication US7868013B2, “Cycloalkyl substituted pyrimidinediamine compounds and their uses” (Rigel Pharmaceuticals, Inc., priority 2004, dated 2011).
pIC50: −log10 of the molar value. Where two headings read alike, the source gives them in different places.

Columns and labels:
Assay type in all cases: cell-based
[1] = tested on: K562 (bone marrow chronic myelogenous leukemia); test: In vitro antiproliferation assay, K562 cells; conditions: Homo sapiens
Description: (§1) Certain compounds were tested against other cell types for their ability to inhibit proliferation in standard antiproliferation assays.

[2] = tested on: H1299 (non-small cell lung carcinoma); test: In vitro antiproliferation assay, H1299 cells (TABLE 1 6 point assay; TABLE 2); conditions: Homo sapiens
Description: as §1

[3] = tested on: MiaPaCa-2 (pancreatic carcinoma); test: In vitro antiproliferation assay, MiaPaCa-2 cells; conditions: Homo sapiens, MIA PaCa-2; Miapaca2; read-out: In Vitro IC50
Description: (§2) Cis racemic Compound 15, (1S,2R) enantiomeric Compound 15a and […] enantiomeric Compound 15b were also tested against DU145 (prostate carcinoma), HCT116 (colorectal carcinoma) and MiaPaCa-2 (pancreatic carcinoma) cell lines.
as §1

[4] = tested on: SK-OV-3 (ovarian adenocarcinoma); test: In vitro antiproliferation assay, SK-OV-3 cells; conditions: Homo sapiens, SKOV3
Description: as §1

[5] = tested on: PC3 (prostate adenocarcinoma); test: In vitro antiproliferation assay, PC3 cells; conditions: Homo sapiens, PC-3
Description: as §1

[6] = tested on: HELA (cervical adenocarcinoma); test: In vitro antiproliferation assay, HELA cells; conditions: Homo sapiens, HeLa
Description: as §1

A549 (lung carcinoma) = test: In vitro antiproliferation assay, A549 cells (TABLE 1 6 point assay; TABLE 2); conditions: Homo sapiens
Description: as §1

[7] = tested on: MOLT4 (T lymphoblast acute lymphoblastic leukemia); test: In vitro antiproliferation assay, MOLT4 cells; conditions: Homo sapiens, MOLT-4
Description: as §1

H7299 = test: In vitro antiproliferation assay, H7299 cells
Description: as §1

[8] = tested on: MOLT3 (T lymphoblast acute lymphoblastic leukemia); test: In vitro antiproliferation assay, MOLT3 cells; conditions: Homo sapiens, MOLT-3
Description: as §1

[9] = tested on: COLO 205 (colorectal adenocarcinoma); test: In vitro antiproliferation assay, COLO 205 cells; conditions: Homo sapiens, COLO 205; Colo205
Description: as §1

[10] = tested on: L1210 (mouse lymphocytic leukemia); test: In vitro antiproliferation assay, L1210 cells; conditions: Mus musculus
Description: as §1

[11] = tested on: TOV-21G (ovarian clear cell carcinoma); test: In vitro antiproliferation assay, TOV-21G cells; conditions: Homo sapiens, TOV21G; TOV-G21
Description: as §1

[12] = tested on: THP-1 (monocyte acute monocytic leukemia); test: In vitro antiproliferation assay, THP-1 cells; conditions: Homo sapiens
Description: as §1

U2OS (bone osteosarcoma) = test: In vitro antiproliferation assay, U2OS cells; conditions: Homo sapiens, U2OS; U20S
Description: as §1

[13] = tested on: BXPC-3 (pabcreatic adenocarcinoma); test: In vitro antiproliferation assay, BXPC-3 cells; conditions: Homo sapiens
Description: as §1

[14] = tested on: SW620 (colorectal adenocarcinoma); test: In vitro antiproliferation assay, SW620 cells; conditions: Homo sapiens, SW-620
Description: as §1

[15] = tested on: DU145 (prostate carcinoma); test: In vitro antiproliferation assay, DU145 cells; conditions: Homo sapiens, DU-145; DU145; read-out: In Vitro IC50
Description: as §2, §1

[16] = tested on: CaOV-3 (ovarian adenocarcinoma); test: In vitro antiproliferation assay, CaOV-3 cells; conditions: Homo sapiens
Description: as §1

[17] = tested on: SU86.86 (pancreatic carcinoma); test: In vitro antiproliferation assay, SU86.86 cells; conditions: Homo sapiens, SU.86.86
Description: as §1

[18] = tested on: HL160 (promyeloblast promyelocytic leukemia); test: In vitro antiproliferation assay, HL160 cells
Description: as §1

[19] = tested on: H1155 (non-small cell lung carcinoma); test: In vitro antiproliferation assay, H1155 cells; conditions: Homo sapiens, NCI-H1155
Description: as §1

[20] = tested on: U937 (histiocytic lymphoma); test: In vitro antiproliferation assay, U937 cells; conditions: Homo sapiens, U-937
Description: as §1

[21] = tested on: ASPC-1 (pancreatic adenocarcinoma); test: In vitro antiproliferation assay, ASPC-1 cells; conditions: Homo sapiens, ASPC1
Description: as §1

Aurora kinase-B = molecular target: T1, Aurora kinase-B (Homo sapiens, UniProt Q96GD4); test: Functional cellular assay of Aurora kinase-B: phosphorylation of histone H3 in A549 cells; conditions: A549 cells, phospho-histone H3; read-out: IC50 of Aurora kinase-B inhibition
T1 construct: endogenous in cells; host or cells: A549 cells
T1 sequence (Q96GD4 whole entry): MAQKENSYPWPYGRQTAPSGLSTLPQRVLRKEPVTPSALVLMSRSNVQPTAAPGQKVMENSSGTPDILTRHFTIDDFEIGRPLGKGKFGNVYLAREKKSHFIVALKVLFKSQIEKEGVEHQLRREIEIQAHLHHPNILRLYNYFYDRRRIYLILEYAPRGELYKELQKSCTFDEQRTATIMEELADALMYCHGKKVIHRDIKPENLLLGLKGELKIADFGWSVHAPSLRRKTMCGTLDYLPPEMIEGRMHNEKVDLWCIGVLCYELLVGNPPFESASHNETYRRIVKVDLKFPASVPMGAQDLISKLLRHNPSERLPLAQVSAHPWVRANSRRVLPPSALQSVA
Description: Enantiomers E1 and E2 (Compounds 60a and 60b, respectively) were tested for their ability to inhibit Aurora kinase-B in a functional cellular assay involving phosphorylation of its substrate, histone H3. For the assay, A549 cells were seeded into the wells of a microtiter tray (5000 cells/well in 100 μl F12K media) late in the afternoon on Day 1. The cells were grown overnight (37° C., 5% CO2) On Day 2, 50 μl nocodazole (1 μM in media) was added to each well, giving a final concentration of 333 nM. Cells were grown for an additional 18 hrs under the same conditions.
On Day 3, 50 μl aliguots of varying concentrations of test compound were added to the wells Test compounds were prepared by 2-fold serial dilution of a […] stock (in DMSO). The diluted compounds in DMSO were then further diluted 1:50 with media to yield a final solution containing 4× test compound, 98% media, 2% DMSO. After incubation, the media/test compound was washed and the cells fixed with 2% paraformaldehyde (in Dulbecco's phosphate buffered saline “DPBS”; 25 μl per well; […] incubation). […] The cells were then stained with a secondary antibody labeled with a fluorescent dye (secondary antibody donkey anti-mouse AlexFluor 488 (Invitrogen Molecular Probes; 1:2000) and DAPI (1:15,000 of 1 mg/ml stock) for 1 hr at room temperature, washed three times with DPBS (200 μl/well) and stored under DPBS (100 μl/well) at 4° C. until ready for analysis.
A Zeiss Axiovert S100 inverted fluorescent microscope with a Plan-NEOFLUAR 10× objective, a Hamamatsu Lightningcure 200 Mercury-Xenon light source and an Omega Optical XF57 quad filter was used for all data collection. […] Images were captured and analyzed in 12-bit format using segmentation and morphological routines contained in the Image Pro software package. Identified nuclei were counted and pixel data for each cell along with experimental conditions was stored in a database using MySQL 4.0.14. […]
For phospho-histone H3 analysis the data is converted to Facs files and analysed using FlowJo. […]

## Cc1cc(Nc2ncc(F)c(N[C@H]3[C@@H](C(N)=O)[C@@H]4C=C[C@H]3C4)n2)ccc1N1CCN(C)CC1 (single isomer, unassigned) [Compound 60a]
[1]
  pIC50: ≥ 6.00
[2]; NCI-H1299, 6 point assay, H1299 cells, read-out: IC50, H1299 cells
  pIC50: ≥ 7.00
[2]; NCI-H1299, H1299, read-out: In Vitro IC50
  pIC50: ≥ 8.00
[3]
  pIC50: ≥ 8.00
[4]
  pIC50: ≥ 7.70
[5]
  pIC50: ≥ 8.00
[6]
  pIC50: ≥ 8.00
A549 (lung carcinoma); A549, 6 point assay, A549 cells, read-out: IC50, A549 cells
  pIC50: ≥ 7.00
A549 (lung carcinoma); A549, A549, read-out: In Vitro IC50
  pIC50: ≥ 8.00
[7]
  pIC50: ≥ 8.00
H7299
  pIC50: ≥ 7.70
[8]
  pIC50: ≥ 8.00
[9]
  pIC50: ≥ 8.00
[10]
  pIC50: ≥ 7.70
[11]
  pIC50: ≥ 8.00
[12]
  pIC50: ≥ 6.00
U2OS (bone osteosarcoma)
  pIC50: ≥ 8.00
[13]
  pIC50: ≥ 8.00
[14]
  pIC50: ≥ 7.70
[15]
  pIC50: ≥ 7.70
[16]
  pIC50: ≥ 8.00
[17]
  pIC50: ≥ 7.70
[18]
  pIC50: ≥ 8.00
[19]
  pIC50: ≥ 8.00
[20]
  pIC50: ≥ 8.00
[21]
  pIC50: ≥ 8.00
Aurora kinase-B
  pIC50: ~8.15
